Test results as given in article PMC7093416, “Selective USP7 inhibition elicits cancer cell killing through a p53-dependent mechanism” (Scientific Reports, 2020).

Test system: panel of 484 cancer cell lines
Experiment: PRISM cancer cell line profiling, 5 days
Assay type: cell-based
Set-up: AUC: unit not given beside the values
Protocol: Cancer cell line profiling was performed using the Broad’s PRISM platform. Cell treatment and data analysis were performed as described in Yu et al[42]. Raw Luminex signal was converted to AUC values for each cell line as described. The resulting AUC profile for each compound was modeled against DepMap using the limma package in R[71]. Because hotspot mutation analysis was performed against DepMap, TP53 annotations in Fig. 6c,d are directly from DepMap.

CN1CCN(CCC(=O)Nc2ccc3c(=O)n(CC4(O)CCN(C(=O)[C@@H](CCCNC(=O)c5ccc6c(Cl)c7c(nc6c5)CCCC7)Cc5ccccc5)CC4)cnc3c2)CC1 [XL177A]
AUC (MG63_BONE): 1.147 | AUC (MHHES1_BONE): 0.9854 | AUC (MIAPACA2_PANCREAS): 0.7815 | AUC (MKN1_STOMACH): 1.271 | AUC (MKN7_STOMACH): 0.8494 | AUC (MKN45_STOMACH): 0.5723 | AUC (MKN74_STOMACH): 0.9306 | AUC (MON_SOFT_TISSUE): 0.2802 | AUC (MPP89_PLEURA): 1.207 | AUC (MSTO211H_PLEURA): 0.9069 | AUC (NB1_AUTONOMIC_GANGLIA): 0.8293 | AUC (NCIH23_LUNG): 0.7147 | AUC (NCIH28_PLEURA): 1.117 | AUC (NCIH226_LUNG): 0.8849 | AUC (NCIH292_LUNG): 1.012 | AUC (NCIH322_LUNG): 0.9977 | AUC (NCIH358_LUNG): 0.842 | AUC (NCIH446_LUNG): 1.125 | AUC (NCIH460_LUNG): 1.082 | AUC (NCIH520_LUNG): 1.357 | AUC (NCIH522_LUNG): 0.9146 | AUC (NCIH596_LUNG): 0.8559 | AUC (NCIH650_LUNG): 0.8175 | AUC (NCIH661_LUNG): 1.081 | AUC (NCIH727_LUNG): 1.196 | AUC (NCIH747_LARGE_INTESTINE): 0.9621 | AUC (NCIH838_LUNG): 0.9473 | AUC (NCIH841_LUNG): 0.967 | AUC (NCIH1048_LUNG): 1.077 | AUC (NCIH1299_LUNG): 1.101 | AUC (NCIH1339_LUNG): 0.9923 | AUC (NCIH1355_LUNG): 0.948 | AUC (NCIH1373_LUNG): 0.8577 | AUC (NCIH1435_LUNG): 1.156 | AUC (NCIH1437_LUNG): 0.9262 | AUC (NCIH1563_LUNG): 0.7202 | AUC (NCIH1568_LUNG): 0.8953 | AUC (NCIH1573_LUNG): 1.235 | AUC (NCIH1581_LUNG): 0.9829 | AUC (NCIH1623_LUNG): 0.9673 | AUC (NCIH1648_LUNG): 0.9409 | AUC (NCIH1650_LUNG): 0.8271 | AUC (NCIH1651_LUNG): 1.042 | AUC (NCIH1693_LUNG): 0.9884 | AUC (NCIH1703_LUNG): 1.041 | AUC (NCIH1792_LUNG): 1.0161 | AUC (NCIH1793_LUNG): 1.096 | AUC (NCIH1838_LUNG): 0.9778 | AUC (NCIH1915_LUNG): 0.9037 | AUC (NCIH1944_LUNG): 0.9736 | AUC (NCIH1975_LUNG): 0.923 | AUC (NCIH2009_LUNG): 0.7912 | AUC (NCIH2023_LUNG): 1.0442 | AUC (NCIH2030_LUNG): 1.09 | AUC (NCIH2052_PLEURA): 0.7196 | AUC (NCIH2077_LUNG): 1.06 | AUC (NCIH2087_LUNG): 0.9147 | AUC (NCIH2110_LUNG): 1.049 | AUC (NCIH2122_LUNG): 0.751 | AUC (NCIH2126_LUNG): 0.9474 | AUC (NCIH2170_LUNG): 1.032 | AUC (NCIH2172_LUNG): 1.068 | AUC (NCIH2228_LUNG): 0.9446 | AUC (NCIH2347_LUNG): 0.9414 | AUC (NCIH2444_LUNG): 0.981 | AUC (NCIH2452_PLEURA): 1.231 | AUC (NCIN87_STOMACH): 1.289 | AUC (NUGC3_STOMACH): 0.9146 | AUC (NUGC4_STOMACH): 0.8113 | AUC (OAW42_OVARY): 0.9061 | AUC (OC314_OVARY): 1.051 | AUC (OC316_OVARY): 1.076 | AUC (OE19_OESOPHAGUS): 1.108 | AUC (OE21_OESOPHAGUS): 0.9739 | AUC (OE33_OESOPHAGUS): 1.005 | AUC (ONCODG1_OVARY): 0.9121 | AUC (ONS76_CENTRAL_NERVOUS_SYSTEM): 0.7482 | AUC (OSRC2_KIDNEY): 0.9599 | AUC (OUMS23_LARGE_INTESTINE): 0.9942 | AUC (OV56_OVARY): 0.9082 | AUC (OVCAR8_OVARY): 1.07 | AUC (OVISE_OVARY): 0.8469 | AUC (OVK18_OVARY): 0.8349 | AUC (OVSAHO_OVARY): 0.9469 | AUC (OVTOKO_OVARY): 1.103 | AUC (PANC1_PANCREAS): 0.8692 | AUC (PANC0203_PANCREAS): 0.8971 | AUC (PANC0327_PANCREAS): 1.196 | AUC (PANC0403_PANCREAS): 1 | AUC (PANC0813_PANCREAS): 0.9365 | AUC (PANC1005_PANCREAS): 1.142 | AUC (PATU8902_PANCREAS): 1.125 | AUC (PATU8988S_PANCREAS): 1.237 | AUC (PATU8988T_PANCREAS): 0.9888 | AUC (PC3_PROSTATE): 0.9272 | AUC (PC14_LUNG): 0.8983 | AUC (PECAPJ15_UPPER_AERODIGESTIVE_TRACT): 0.8461 | AUC (PECAPJ41CLONED2_UPPER_AERODIGESTIVE_TRACT): 0.7551 | AUC (PECAPJ49_UPPER_AERODIGESTIVE_TRACT): 0.693 | AUC (PK1_PANCREAS): 1.009 | AUC (PK45H_PANCREAS): 1.081 | AUC (PK59_PANCREAS): 1.041 | AUC (PLCPRF5_LIVER): 1.069 | AUC (PSN1_PANCREAS): 0.9727 | AUC (QGP1_PANCREAS): 1.095 | AUC (RCC10RGB_KIDNEY): 1.14 | AUC (RCM1_LARGE_INTESTINE): 1.19 | AUC (RD_SOFT_TISSUE): 0.8902 | AUC (RERFLCAD1_LUNG): 1.191 | AUC (RERFLCAD2_LUNG): 1.139 | AUC (RERFLCAI_LUNG): 0.8829 | AUC (RERFLCKJ_LUNG): 0.8002 | AUC (RERFLCMS_LUNG): 1.045 | AUC (RH30_SOFT_TISSUE): 0.9309 | AUC (RKN_SOFT_TISSUE): 0.8534 | AUC (RKO_LARGE_INTESTINE): 0.7552 | AUC (RL952_ENDOMETRIUM): 0.9781 | AUC (RMGI_OVARY): 0.9543 | AUC (RMUGS_OVARY): 0.8888 | AUC (RT4_URINARY_TRACT): 1.356 | AUC (RT112_URINARY_TRACT): 1.227
